Measurements: ChEMBL document CHEMBL1201862, “PubChem BioAssay data set” (2004)
Calls of active or inactive are those of the source.

Key:
[1] = target: Sphingosine 1-phosphate receptor 2 (Homo sapiens, UniProt O95136); experiment: Dose Response Cell Based Assay for Agonists of the S1P2 Receptor of Purchased Analogues. [Related pubchem assays: 729, 843, 854, 736 ]; assay type: functional
NADPH oxidase 1 = NADPH oxidase 1 (Homo sapiens, UniProt Q9Y5S8); assay type: functional, cell-based;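 note: Cell-based assay with luminescence read-out, IC50 derived from inhibitor dose-response curves; intracellular ROS from endogenous NOX1 in intact HT29 colon cancer cells; potency of inhibitors that lower the ROS luminescence signal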
Chain of NADPH oxidase 1 (Q9Y5S8 whole entry): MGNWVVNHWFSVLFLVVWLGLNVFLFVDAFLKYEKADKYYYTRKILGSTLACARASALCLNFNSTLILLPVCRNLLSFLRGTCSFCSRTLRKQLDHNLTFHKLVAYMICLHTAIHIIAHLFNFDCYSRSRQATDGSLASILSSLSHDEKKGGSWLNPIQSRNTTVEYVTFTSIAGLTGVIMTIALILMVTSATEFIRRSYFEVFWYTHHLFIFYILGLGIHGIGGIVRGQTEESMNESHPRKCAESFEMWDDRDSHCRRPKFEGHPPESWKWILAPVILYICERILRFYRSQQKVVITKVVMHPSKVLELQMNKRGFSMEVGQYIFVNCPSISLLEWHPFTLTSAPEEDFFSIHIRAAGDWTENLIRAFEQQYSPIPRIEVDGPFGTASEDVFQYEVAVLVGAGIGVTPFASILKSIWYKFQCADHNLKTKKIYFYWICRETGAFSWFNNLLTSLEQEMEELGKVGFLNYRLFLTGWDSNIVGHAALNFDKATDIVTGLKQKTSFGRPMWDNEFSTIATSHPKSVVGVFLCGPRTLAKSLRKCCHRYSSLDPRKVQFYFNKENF

[2] = target: T1, E3 ubiquitin-protein ligase XIAP (Homo sapiens, UniProt P98170); experiment: Counter Screen using XIAP-Bir3 for Chemical Antagonists of Bir1/2 domains of IAP-family anti-apoptotic proteins. [Related pubchem assays (depositor defined):AID1018, AID1449, AID1514, AID1638, AID1749, AID1750, AID488957, AID488963]
T1 sequence (P98170 whole entry): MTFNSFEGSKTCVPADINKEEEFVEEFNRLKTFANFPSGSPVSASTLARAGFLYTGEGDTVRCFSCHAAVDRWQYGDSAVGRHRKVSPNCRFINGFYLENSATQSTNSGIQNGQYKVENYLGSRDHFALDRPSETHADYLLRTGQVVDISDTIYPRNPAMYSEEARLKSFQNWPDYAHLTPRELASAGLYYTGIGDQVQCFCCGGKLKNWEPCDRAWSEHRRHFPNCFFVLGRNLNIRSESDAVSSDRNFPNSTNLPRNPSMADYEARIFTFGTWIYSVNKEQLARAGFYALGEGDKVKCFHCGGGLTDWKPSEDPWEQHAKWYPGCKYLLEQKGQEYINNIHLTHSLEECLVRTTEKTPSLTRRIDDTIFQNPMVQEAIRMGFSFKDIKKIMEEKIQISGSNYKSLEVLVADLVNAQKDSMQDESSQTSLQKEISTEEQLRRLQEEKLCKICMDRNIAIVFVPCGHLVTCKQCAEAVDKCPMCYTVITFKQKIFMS

[3] = target: T1, E3 ubiquitin-protein ligase XIAP; experiment: XIAP antagonists, biochemical, IAP family, fluorescence polarization (AID 1018); assay type: functional
Aspartyl aminopeptidase = target: T2, Aspartyl aminopeptidase (Plasmodium falciparum 3D7, UniProt Q8I2J3); experiment: Counterscreen for inhibitors of M1 and M17 aminopeptidases: QFRET-based biochemical high throughput dose response assay for inhibitors of the Plasmodium falciparum M18 Aspartyl Aminopeptidase (PFM18AAP). [Related PubChem assays: 1619 (Screening assay (M17LAP inhibitors).), 1445 (Screening assay (M1AAP inhibitors).)]
T2 sequence (Q8I2J3 whole entry): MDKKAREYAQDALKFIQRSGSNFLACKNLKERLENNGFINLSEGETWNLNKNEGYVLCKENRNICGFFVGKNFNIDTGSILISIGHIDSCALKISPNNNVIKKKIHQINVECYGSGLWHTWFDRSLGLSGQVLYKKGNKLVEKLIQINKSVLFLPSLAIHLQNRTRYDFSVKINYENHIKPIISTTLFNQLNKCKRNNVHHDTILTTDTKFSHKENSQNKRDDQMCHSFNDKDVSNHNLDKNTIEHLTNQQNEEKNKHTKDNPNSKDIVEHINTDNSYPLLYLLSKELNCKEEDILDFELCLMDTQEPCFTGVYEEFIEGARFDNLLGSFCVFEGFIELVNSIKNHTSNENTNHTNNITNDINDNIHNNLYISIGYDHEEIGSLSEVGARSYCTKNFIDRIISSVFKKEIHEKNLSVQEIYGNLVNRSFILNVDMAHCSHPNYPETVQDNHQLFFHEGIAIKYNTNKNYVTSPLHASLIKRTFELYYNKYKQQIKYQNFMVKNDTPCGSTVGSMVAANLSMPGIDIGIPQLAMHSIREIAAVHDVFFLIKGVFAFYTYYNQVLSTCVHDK

Leucine aminopeptidase = target: T3, Leucine aminopeptidase (Plasmodium falciparum 3D7, UniProt Q8IL11); experiment: P. falciparum M17LAP inhibitors, primary screen, biochemical, fluorogenic H-Leu-NHMec substrate, 1536-well (AID 1619); assay type: functional
T3 sequence (Q8IL11 whole entry): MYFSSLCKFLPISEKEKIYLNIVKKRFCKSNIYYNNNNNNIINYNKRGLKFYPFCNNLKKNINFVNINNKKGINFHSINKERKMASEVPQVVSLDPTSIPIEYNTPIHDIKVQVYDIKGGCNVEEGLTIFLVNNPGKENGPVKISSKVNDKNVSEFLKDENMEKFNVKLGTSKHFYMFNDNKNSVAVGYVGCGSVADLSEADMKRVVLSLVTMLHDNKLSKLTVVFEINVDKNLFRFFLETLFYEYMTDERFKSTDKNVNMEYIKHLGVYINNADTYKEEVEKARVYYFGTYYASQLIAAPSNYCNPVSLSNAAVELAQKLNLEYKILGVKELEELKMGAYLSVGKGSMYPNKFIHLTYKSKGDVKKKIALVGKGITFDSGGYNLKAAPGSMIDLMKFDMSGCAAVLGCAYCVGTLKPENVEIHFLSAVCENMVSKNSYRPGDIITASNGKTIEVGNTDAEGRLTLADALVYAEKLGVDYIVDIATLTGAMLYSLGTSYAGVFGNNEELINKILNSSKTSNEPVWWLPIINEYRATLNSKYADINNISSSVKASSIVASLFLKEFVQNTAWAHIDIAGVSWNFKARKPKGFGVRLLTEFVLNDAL

Protein RecA = target: T4, Protein RecA (Mycobacterium tuberculosis, UniProt P9WHJ3); experiment: Fluorescence Cell-Free Homogeneous Dose Retest to Identify Inhibitors of RecA-Intein Splicing Activity. [Related pubchem assays (depositor defined):AID2097, AID2223, AID489010, AID492950]; assay type: functional
T4 sequence (P9WHJ3 whole entry): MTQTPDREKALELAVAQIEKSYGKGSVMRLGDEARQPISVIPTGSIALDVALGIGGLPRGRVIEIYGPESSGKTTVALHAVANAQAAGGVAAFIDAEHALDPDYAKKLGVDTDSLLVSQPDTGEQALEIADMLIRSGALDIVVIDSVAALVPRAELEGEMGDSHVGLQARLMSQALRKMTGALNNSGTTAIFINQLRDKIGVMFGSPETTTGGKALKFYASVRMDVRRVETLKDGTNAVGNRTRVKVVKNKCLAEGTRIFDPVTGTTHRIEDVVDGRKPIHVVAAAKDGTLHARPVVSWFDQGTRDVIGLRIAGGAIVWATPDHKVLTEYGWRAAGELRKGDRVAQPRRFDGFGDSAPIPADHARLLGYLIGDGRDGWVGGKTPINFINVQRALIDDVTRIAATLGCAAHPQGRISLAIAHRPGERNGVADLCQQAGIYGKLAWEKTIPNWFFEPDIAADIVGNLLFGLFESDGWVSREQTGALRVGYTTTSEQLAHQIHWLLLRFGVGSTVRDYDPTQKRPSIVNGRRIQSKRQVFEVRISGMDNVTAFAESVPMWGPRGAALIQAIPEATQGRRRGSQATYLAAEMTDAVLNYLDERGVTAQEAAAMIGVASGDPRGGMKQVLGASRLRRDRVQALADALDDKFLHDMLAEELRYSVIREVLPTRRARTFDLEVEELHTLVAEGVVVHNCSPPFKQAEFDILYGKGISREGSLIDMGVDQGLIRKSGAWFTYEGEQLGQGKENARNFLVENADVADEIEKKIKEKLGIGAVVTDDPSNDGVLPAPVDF

Procathepsin L = Procathepsin L (Homo sapiens, UniProt P07711); experiment: cathepsin L inhibitors, dose response, counter-screen for M1/M17 aminopeptidase inhibitor project, biochemical, QFRET, 1536-well (AID 2214)
Chain of Procathepsin L (P07711 whole entry): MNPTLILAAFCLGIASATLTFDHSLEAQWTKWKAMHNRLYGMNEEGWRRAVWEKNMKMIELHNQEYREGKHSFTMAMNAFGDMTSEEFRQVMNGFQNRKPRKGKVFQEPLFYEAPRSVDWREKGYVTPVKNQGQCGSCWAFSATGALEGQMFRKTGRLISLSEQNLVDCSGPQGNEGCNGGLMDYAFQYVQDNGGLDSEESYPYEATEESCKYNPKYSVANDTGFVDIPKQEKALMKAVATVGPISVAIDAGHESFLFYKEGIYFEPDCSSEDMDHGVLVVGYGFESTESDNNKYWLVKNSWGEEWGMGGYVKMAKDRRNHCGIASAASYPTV

[4] = target: T5, Replicative DNA helicase DnaB (Mycobacterium tuberculosis, UniProt P9WMR3); experiment: DnaB intein splicing inhibitors, dose response, biochemical, cell-free fluorescence (AID 449749); assay type: functional
T5 sequence (P9WMR3 whole entry): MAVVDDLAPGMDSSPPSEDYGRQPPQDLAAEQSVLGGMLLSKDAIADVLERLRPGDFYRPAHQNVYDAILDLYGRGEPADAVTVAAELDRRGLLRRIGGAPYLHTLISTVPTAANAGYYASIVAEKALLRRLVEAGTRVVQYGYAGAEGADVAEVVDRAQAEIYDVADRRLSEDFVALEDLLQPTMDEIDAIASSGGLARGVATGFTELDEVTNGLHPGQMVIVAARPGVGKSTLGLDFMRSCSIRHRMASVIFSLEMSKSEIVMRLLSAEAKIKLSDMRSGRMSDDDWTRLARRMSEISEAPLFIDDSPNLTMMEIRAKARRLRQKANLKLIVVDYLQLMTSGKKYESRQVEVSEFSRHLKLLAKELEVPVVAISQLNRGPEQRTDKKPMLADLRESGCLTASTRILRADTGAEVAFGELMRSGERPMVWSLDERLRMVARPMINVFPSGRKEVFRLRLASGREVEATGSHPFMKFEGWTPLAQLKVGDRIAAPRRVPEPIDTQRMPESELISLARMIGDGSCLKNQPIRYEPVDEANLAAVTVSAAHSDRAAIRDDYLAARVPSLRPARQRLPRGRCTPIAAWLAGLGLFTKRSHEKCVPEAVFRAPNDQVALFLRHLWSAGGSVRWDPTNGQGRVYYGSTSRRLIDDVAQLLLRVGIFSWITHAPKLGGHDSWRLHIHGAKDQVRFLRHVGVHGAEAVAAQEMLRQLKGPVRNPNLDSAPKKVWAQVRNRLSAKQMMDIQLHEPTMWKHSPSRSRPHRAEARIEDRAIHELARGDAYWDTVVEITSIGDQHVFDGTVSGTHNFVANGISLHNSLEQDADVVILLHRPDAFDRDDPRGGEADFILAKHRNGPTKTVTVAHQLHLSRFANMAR

Jurkat = experiment: antigen receptor-induced NF-kB inhibitors, dose response, Jurkat, luciferase reporter, luminescence, B- and T-cell (AID 489004); assay type: functional, cell-based; settings: Homo sapiens;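 note: NF-kB luciferase reporter Jurkat cells stimulated with PMA plus ionomycin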
[5] = target: T6, Heat shock factor protein 1 (Mus musculus, UniProt P38532); experiment: inhibition of MG132-induced HSE-luciferase signal, confirmation, cell-based, NIH3T3, luminescence, dose retest (AID 2382); assay type: functional;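 note: NIH3T3 fibroblasts with HSF1-driven luciferase reporter stressed by proteasome inhibitor MG132; luminescence from HSF1-driven luciferase expression after 8 hours of MG132 stress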
T6 sequence (P38532 whole entry): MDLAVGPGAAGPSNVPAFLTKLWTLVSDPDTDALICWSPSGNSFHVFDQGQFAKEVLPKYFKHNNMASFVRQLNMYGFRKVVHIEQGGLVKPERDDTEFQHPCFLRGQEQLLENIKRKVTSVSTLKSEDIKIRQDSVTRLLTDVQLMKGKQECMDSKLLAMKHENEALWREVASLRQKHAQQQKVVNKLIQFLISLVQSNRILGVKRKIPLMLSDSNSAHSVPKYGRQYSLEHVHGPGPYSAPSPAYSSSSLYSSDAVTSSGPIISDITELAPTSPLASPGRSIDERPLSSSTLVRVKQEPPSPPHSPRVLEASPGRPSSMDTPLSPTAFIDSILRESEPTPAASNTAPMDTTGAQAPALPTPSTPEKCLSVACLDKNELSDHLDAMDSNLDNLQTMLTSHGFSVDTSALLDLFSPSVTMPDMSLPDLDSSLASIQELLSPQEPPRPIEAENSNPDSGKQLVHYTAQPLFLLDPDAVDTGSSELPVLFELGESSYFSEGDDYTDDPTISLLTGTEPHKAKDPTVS

[6] = cytotoxicity toward NIH3T3 fibroblasts, dose response, counter-screen, cell-based, ATP luminescence, mouse fibroblasts (AID 2010); assay type: functional;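 note: cells exposed to compound for about 90 hours before reading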
[7] = cytotoxicity in HEK-293T NF-kB-Luc cells, dose response, cytotoxicity control for B/T-cell NF-kB inhibitor project, cell-based, uHTS hits (AID 489019); assay type: functional;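 note: IC50 reflects cytotoxicity as loss of cell viability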
Paired box protein Pax-8 = Paired box protein Pax-8 (Homo sapiens, UniProt Q06710); experiment: inhibitors of PAX8-driven TPO luciferase reporter, dose response, RMG-I cells, cherry-pick (AID 687027); assay type: functional, cell-based;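 note: luciferase reporter driven by Pax8 target thyroperoxidase promoter measured by SteadyGlo luminescence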
Chain of Paired box protein Pax-8 (Q06710 whole entry): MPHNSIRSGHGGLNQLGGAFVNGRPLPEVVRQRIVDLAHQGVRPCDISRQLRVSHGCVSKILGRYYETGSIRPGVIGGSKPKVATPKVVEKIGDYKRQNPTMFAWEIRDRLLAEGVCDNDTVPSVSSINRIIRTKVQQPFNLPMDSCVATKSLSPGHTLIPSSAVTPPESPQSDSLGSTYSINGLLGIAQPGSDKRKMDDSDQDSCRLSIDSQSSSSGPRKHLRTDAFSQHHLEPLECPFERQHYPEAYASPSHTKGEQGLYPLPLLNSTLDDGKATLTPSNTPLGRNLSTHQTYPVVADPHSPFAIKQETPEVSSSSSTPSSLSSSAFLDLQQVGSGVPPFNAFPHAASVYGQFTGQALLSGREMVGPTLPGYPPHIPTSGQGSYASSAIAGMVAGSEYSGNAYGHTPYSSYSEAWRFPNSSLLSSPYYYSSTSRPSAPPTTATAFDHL

[8] = non-specific cell cytotoxicity, dose response, cytotoxicity control for PAX8 inhibitor project, plate reader, dry powder samples (AID 743021); assay type: functional, cell-based
[9] = Luminescent dose response cell-based high throughput screening assay for inhibitors of the Janus kinase 2 mutant JAK2V617F. [Related pubchem assays: 1446 (Primary screen.), 1521 (Confirmation assay.), 1486 (Counter screen.)]; assay type: functional
[10] = inhibitors of intracellular T. cruzi replication, confirmation, NIH3T3 host cells, beta-gal luminescence (AID 2044); assay type: functional, cell-based;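 note: intracellular parasites grown in NIH/3T3 mouse fibroblasts as host cells; luminescent beta-galactosidase reporter signal from transgenic T. cruzi replicating inside host cells; inhibitors lower the luminescence signal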
[11] = Luminescence Cell-Based Dose Confirmation to Identify Activators of 5'UTR Stem-Loop Driven Alpha-Synuclein mRNA Translation in H4 Neuroglioblastoma Cells. [Related pubchem assays: 1829 (Project Summary), 1814 (Primary HTS)]; assay type: functional
[12] = Luminescence Cell-Based Dose Response to Identify Activators of 5'UTR Stem-Loop Driven Prion Protein mRNA Translation in H4-C Neuroglioblastoma Cells. [Related pubchem assays: 1829 (Project Summary), 1814 (Primary HTS)]; assay type: functional
[13] = Luminescence Cell-Based Dose Response HTS to Identify Activators of Luciferase Translation or Activity in H4 […] Cells. [Related pubchem assays: 1829 (Project Summary), 1814 (Primary HTS)]; assay type: functional
[14] = Luminescence Cell-Based Dose Response to Identify Activators of Luciferase Translation or Activity in H4-C Neuroglioblastoma Cells. [Related pubchem assays: 1829 (Project Summary), 1814 (Primary HTS)]; assay type: functional
H4 = experiment: Luminescence Cell-Based Dose Response HTS to Identify Activators of 5'UTR Stem-Loop Driven Prion Protein mRNA Translation in H4 Neuroglioblastoma Cells. [Related pubchem assays: 1829 (Project Summary), 1814 (Primary HTS)]; assay type: functional; settings: Homo sapiens

Chain of Sphingosine 1-phosphate receptor 2 (O95136 whole entry): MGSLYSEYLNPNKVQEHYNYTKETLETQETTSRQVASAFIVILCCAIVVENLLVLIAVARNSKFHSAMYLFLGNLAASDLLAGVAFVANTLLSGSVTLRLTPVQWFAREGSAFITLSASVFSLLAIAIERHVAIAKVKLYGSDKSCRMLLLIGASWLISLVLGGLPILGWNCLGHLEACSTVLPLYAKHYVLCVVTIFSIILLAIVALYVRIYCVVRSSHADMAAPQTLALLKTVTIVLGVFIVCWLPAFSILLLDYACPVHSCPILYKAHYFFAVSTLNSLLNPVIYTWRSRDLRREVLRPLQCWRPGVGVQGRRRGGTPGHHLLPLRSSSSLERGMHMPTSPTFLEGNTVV

In the case of `Cc1cc(C(=O)CSc2nnnn2C)c(C)n1Cc1ccccc1`, the EC50 [1] is reported as 30000 nM (not active).

In the case of `COc1ccccc1OC(=O)c1sc2ccccc2c1Cl`, the IC50 (NADPH oxidase 1) is reported as > 17000 nM (not active).

In the case of `O=C(NC(=S)NC1CC1)c1cccnc1`, the IC50 [2] is reported as > 100000 nM (inactive) and the IC50 [3] is reported as > 100000 nM (not active).

For `COc1ccc(-c2cc(=O)[nH][nH]2)cc1OC`, the IC50 (Aspartyl aminopeptidase) was > 73500 nM (not active), the IC50 (Leucine aminopeptidase) was 7860 nM (active) and the EC50 (Protein RecA) was 380 nM (active). The IC50 (Procathepsin L) was > 59600 nM (not active) and the AC50 [4] was 1010 nM (active).

For `O=C(CCl)/N=c1\sccn1Cc1ccc(Cl)cc1Cl`, the IC50 (Jurkat) was < 160 nM (active), the EC50 [5] was 361 nM (active) and the EC50 [6] was 192 nM (active). For the same compound, the IC50 [7] was > 80000 nM (inactive), the EC50 (Protein RecA) was 15100 nM (active) and the AC50 (Paired box protein Pax-8) was 1360 nM (active). The AC50 [8] was 2540 nM (active), the IC50 [9] was 235 nM (active) and the EC50 (cells) was < 4 nM (active). For the same compound, the AC50 [4] was 27200 nM (active) and the EC50 [10] was < 100 nM (active).

In the case of `CC1(C)CC(=O)/C(=N/Nc2ccc(Cl)cc2)CO1`, the EC50 [11] is reported as 504 nM (active), the EC50 [12] is reported as 422 nM (active) and the EC50 [13] is reported as 207 nM (active). The EC50 [14] was 324 nM (active) and the EC50 (H4) was < 100 nM (active).
